ChEMBL document CHEMBL1158196, “Isolation and synthesis of novel farnesyl protein transferase inhibitors, valinoctins A and B, from Streptomyces strain MJ858-NF3” (J Nat Prod, 1996)
Values after ≈ are worked out from the molar mass of the structure shown.

Test: Inhibition of bovine brain FPTase after 20 mins
Set-up: species or system Bos taurus

CCCCC[C@@H](N)[C@H](O)C(=O)N[C@H](C(=O)O)C(C)C [VALINOCTIN A]
IC50: 0.9 µg/mL (≈ 3.28 µM)

CCC(C)CC[C@@H](N)[C@H](O)C(=O)N[C@H](C(=O)O)C(C)C (some centres not stated) [VALINOCTIN B]
IC50: 1 µg/mL (≈ 3.47 µM)
